Where “and” joins values, the source holds several entries; their conditions need not be identical. Equal values may be shown once.

In the experiment the target is SARS-CoV-2 Main Protease (SARS-CoV-2) (UniProt P0DTD1).
What is called IC50 is the concentration that gives 50% inhibition. Read a high IC50 as lower potency. With `CS(=O)(=O)Nc1cccc(C2=NN(C(=O)CCl)C(c3ccccc3)C2)c1` (stereo unspecified), the IC50 stood at 5.83 µM.

On to `O=C(Cc1cccc(Cl)c1)Nc1ncn2ccccc12`, for which the half-maximal inhibitory concentration (IC50) is greater than 99.5 µM.

As for `N#Cc1ccc(C(=O)N2C[C@@H](F)C[C@H]2CNC(=O)C2CCCC2O)[nH]1` (stereo in doubt), the IC50 was greater than 99.5 µM.

For the compound `CC1(C(=O)Nc2cncc3cc(S(C)(=O)=O)ccc23)CNS(=O)(=O)c2ccc(Cl)cc21` (stereo unspecified), the 50% inhibitory concentration (IC50) is 0.172 µM.

For `COc1ncncc1C(C(=O)NCCc1cccc(F)c1)N(C(=O)c1cocn1)c1ccc(C(C)(C)C)cc1` (stereo unspecified), the IC50 stood at 8.43 µM.

Compound `COc1cc(N(C(=O)c2cocn2)C(C(=O)NCCc2cccc(F)c2)c2cccnc2)ccc1S(=O)(=O)N(C)C` (stereo unspecified) displayed an IC50 greater than 99.5 µM.

As to `CCOC(=O)Cn1cc(C(=O)N(c2ccc(C(C)(C)C)cc2)C(C(=O)NCCc2cccc(F)c2)c2cccnc2)nn1` (stereo unspecified), the IC50 came to 44 µM.

The compound `Cc1cc(I)ccc1Nc1cc(Cl)cc(CC(=O)Nc2cncc3ccccc23)c1` yielded a half-inhibitory concentration (IC50) of 2.45 µM.

In turn, `Cc1ccc(S(=O)(=O)N2CCN(C(=O)CCl)CC2)cc1` returned an IC50 of 21 µM.

For `CS(=O)(=O)c1ccc2c(NC(=O)C3CN(CC(=O)NC4COC4)C(=O)c4ccc(Cl)cc43)cncc2c1` (stereo unspecified), the IC50 worked out at 0.866 µM.

Take `O=C(Nc1cncc2ccccc12)C1CN(S(=O)(=O)C2COC2)Cc2ccc(Cl)cc21` (stereo unspecified): the IC50 amounted to 0.246 µM.

Compound `COc1ccc2c(NC(=O)C3CCOc4ccc(Cl)cc43)noc2c1` (stereo unspecified) returned an IC50 of 61.5 µM.

In the case of `O=C(Nc1ccc2nncn2c1)c1ccc2scnc2c1`, the IC50 was greater than 99.5 µM.

`Cc1nc2cc(NC(=O)Cn3cnc4c(cnn4C)c3=O)ccc2o1` had a half-inhibitory concentration (IC50) greater than 99.5 µM.

For the compound `C[C@]1(C(=O)Nc2cncc3ccccc23)CCNc2cc(Cl)c(Cl)cc21` (stereo in doubt), the IC50 is 97.7 µM. This lies in the double-digit micromolar range.

The compound `O=C(Cc1cccc(Cl)c1)Nc1cncc2cc(F)cc(Cl)c12` gave an IC50 of 0.718 µM.

In turn, `COc1cc(Cl)c(C)cc1Nc1cc(Cl)cc(CC(=O)Nc2cncc3ccccc23)c1` showed a half-maximal inhibitory concentration (IC50) of 1.58 µM.

For the compound `O=C(Nc1cncc2ccccc12)C1CCN(Cc2cnc[nH]2)c2ccc(Cl)cc21` (stereo unspecified), the IC50 was found to be 1.12 µM.

Compound `CNc1cncc(NC(=O)C2CCOc3ccc(Cl)cc32)c1C` (stereo unspecified) displayed an IC50 of 32.3 µM.

Regarding `O=C(Cc1cc(Cl)cc(Nc2ncc(Br)nc2Cl)c1)Nc1cncc2ccccc12`, the IC50 is 1.71 µM. Against the preceding compound, the IC50 is about 19-fold lower.

Take `Cn1ccnc1CN(C(=O)CC1(C(=O)Nc2cncc3ccccc23)CCOc2ccc(Cl)cc21)C1CC1` (stereo unspecified): the concentration for half-maximal inhibition (IC50) was 5.05 µM.

In turn, `O=C(Cc1cc(Cl)cc(N2CC=C(c3ccccc3)CC2)c1)Nc1cncc2ccccc12` returned an IC50 of 1.66 µM.

Regarding `COc1ccc(Nc2cc(Cl)cc(CC(=O)Nc3cncc4ccccc34)c2)cc1C(F)(F)F`, the IC50 is 1.89 µM.

For `O=C(Cc1cc(Cl)cc(Nc2ccc(Br)c(C(F)(F)F)c2)c1)Nc1cncc2ccccc12`, the IC50 was found to be 2.31 µM.

`COC(=O)c1ccc(-c2cc(Cl)cc(CC(=O)Nc3cnccc3C)c2)c(OC)c1`: the IC50 is 9.62 µM and 16.8 µM.

On to `COCCn1nc(C(=O)N(c2ccc(C(C)(C)C)cc2)C(C(=O)NCCc2cccc(F)c2)c2cccnc2)ccc1=O` (stereo unspecified), for which the IC50 was greater than 99.5 µM.

As to `O=C(Cc1cc(Cl)cc(Nc2ccn([C@H]3C[C@H](O)[C@@H](CO)O3)c(=O)n2)c1)Nc1cncc2ccccc12` (stereo in doubt), the IC50 stood at 1.84 µM.

The compound `COC1(CS(=O)(=O)N2Cc3ccc(Cl)cc3C3(CCN(c4cncc5cc(S(C)(=O)=O)ccc45)C3=O)C2)CC1` (stereo unspecified) returned a 50% inhibitory concentration (IC50) of 0.413 µM. This IC50 lies about 4.5-fold lower than the previous one.

`O=C(NCCc1cccc(F)c1)C(c1cccnc1)N(C(=O)c1cocn1)c1cn(Cc2ccccc2)cn1` (stereo unspecified) yielded an IC50 of 27.3 µM.

Consider `CCOC(=O)c1nc(S(C)(=O)=O)ncc1Cl`, for which the half-maximal inhibitory concentration (IC50) was 1.6 µM.

On to `CC(C)c1cc(N(C(=O)c2ccco2)C(C(=O)NCCc2cccc(F)c2)c2cccnc2)ccc1C(F)(F)F` (stereo unspecified), for which the IC50 was greater than 99.5 µM.

Take `O=C(Nc1cnc2ccccn12)C1CCNc2cc(Cl)c(Cl)cc21` (stereo unspecified): the IC50 came to 1.98 µM. This lies in the single-digit micromolar range.

As for `O=C(Cc1cc(Cl)cc(Nc2ncc(C(F)(F)F)cc2Cl)c1)Nc1cncc2ccccc12`, the IC50 came out at 1.7 µM.

Regarding `CC(=O)N1CCN(CC(=O)Nc2cnccc2-c2ccccc2)CC1`, the concentration for half-maximal inhibition (IC50) was greater than 99.5 µM.

As for `Nc1nn(C(=O)C2CCOc3ccc(Cl)cc32)c2ccncc12` (stereo unspecified), the IC50 stood at 87.2 µM.

On to `O=C(Cc1cc(Cl)cc(Nc2cc(Cl)c(O)c(Cl)c2)c1)Nc1cncc2ccccc12`, for which the IC50 was determined as 6.9 µM.

`Cc1nnc(C2Cc3ccccc3CN2C(=O)CCl)o1` (stereo unspecified) showed an IC50 of 53.5 µM.

Turning to `O=C(COCC1(C(=O)Nc2cncc3ccccc23)CCOc2ccc(Cl)cc21)Nc1ncc[nH]1` (stereo unspecified), the IC50 stood at 1.99 µM. Against the preceding compound, the IC50 is about 27-fold lower.

In the case of `N#Cc1ccc(Nc2cc(Cl)cc(CC(=O)Nc3cncc4ccccc34)c2)cc1Br`, the IC50 turned out to be 2.16 µM.

Take `O=C(NCCc1cccc(F)c1)C(c1cccnc1)N(C(=O)c1cnc[nH]1)c1cccc(Oc2cccnn2)c1` (stereo unspecified): the IC50 is greater than 99 µM.

`CC(C)(C)c1ccc(N(C(=O)c2cnc[nH]2)C(C(=O)NCCc2cccc(F)c2)c2cc(=O)[nH]c3ccccc23)cc1` (stereo unspecified) had an IC50 of 1.31 µM.

With `Cc1ccc2ncnc(NCc3ccc4nonc4c3)c2c1`, the IC50 was greater than 99.5 µM.

Compound `O=C(Cc1cc(Cl)cc(Nc2c(F)cc(F)cc2[N+](=O)[O-])c1)Nc1cncc2ccccc12` came in with an IC50 of 2.04 µM. That is a single-digit micromolar value.

For `CN(CCO)C1CCN(C(=O)CC2(C(=O)Nc3cncc4ccccc34)CCOc3ccc(Cl)cc32)CC1` (stereo unspecified), the 50% inhibitory concentration (IC50) was 37.6 µM.

As for `O=C(NCCc1cccc(F)c1)C(c1cccnc1)N(C(=O)c1cnc[nH]1)c1ccc(Cn2cccn2)cc1` (stereo unspecified), the IC50 is 35.5 µM.

`CCOC(=O)[C@H]1CCCN(c2cc(Cl)cc(CC(=O)Nc3cncc4ccccc34)c2)C1` (stereo in doubt) returned an IC50 of 2.43 µM.

`O=C(Cn1nnc2ccccc21)N(Cc1ccccc1)c1ccc(N2CCOCC2)cc1` displayed an IC50 of 19.8 µM.

`CNC(=O)CN1CC2(CCN(c3cncc4cc(F)ccc34)C2=O)c2cc(Cl)ccc2C1=O` (stereo unspecified) came in with an IC50 of 0.426 µM.

On to `Cc1cnc(Nc2cc(Cl)cc(CC(=O)Nc3cncc4ccccc34)c2)c([N+](=O)[O-])c1`, for which the IC50 was 1.86 µM.

As for `NCc1cn(CC(=O)N(Cc2ccsc2)c2ccc(-n3cnnc3)cc2)nn1`, the IC50 was greater than 99.5 µM.

`O=C(NCCc1cccc(F)c1)C(c1cccnc1)N(C(=O)c1cocn1)c1ccc(-n2cc[nH]c2=O)cc1` (stereo unspecified) returned an IC50 of 45.1 µM.

Take `C1=C(c2c[nH]c3ccccc23)CCN(Cc2ccno2)C1`: the IC50 was greater than 99.5 µM.

`O=C(Cn1nnc2ccccc21)N(Cc1ccccn1)c1ccc(-n2cnnc2)cc1`: the IC50 is greater than 99.5 µM.

`Cc1ccncc1NC(=O)Cc1cc(Cl)cc(OCCN2CCOCC2C)c1` (stereo unspecified) showed a half-inhibitory concentration (IC50) greater than 99.5 µM.

On to `CC1(C(=O)Nc2cncc3ccccc23)CN(CC2CC2)S(=O)(=O)c2ccc(Cl)cc21` (stereo unspecified), for which the IC50 was found to be 0.634 µM.

Turning to `Cc1cc(C(F)(F)F)nc2n[nH]c(NC(=O)C3CCOc4ccc(Cl)cc43)c12` (stereo unspecified), the IC50 is 26 µM. Against the preceding compound, the IC50 is about 41-fold higher.

In turn, `CC(C)(COP(=O)(O)OP(=O)(O)OC[C@H]1O[C@@H](n2cnc3c(N)ncnc32)[C@H](O)[C@@H]1OP(=O)(O)O)[C@@H](O)C(=O)NCCC(=O)NCCSC(=O)CCC(=O)O` (stereo in doubt) had an IC50 greater than 99 µM.

The compound `Cn1c(C(=O)N(c2ccc(C(C)(C)C)cc2)C(C(=O)NCCc2cccc(F)c2)c2cccnc2)c[nH]c1=O` (stereo unspecified) gave an IC50 greater than 99.5 µM.

Compound `Cc1cc(Nc2cc(Cl)cc(CC(=O)Nc3cncc4ccccc34)c2)cc(C)c1Br` gave an IC50 of 2.14 µM.

With `COc1cccc2[nH]c(=O)cc(C(=O)N3CCN(c4cccc(Cl)c4)CC3)c12`, the IC50 was 4.68 µM.

For the compound `CN(c1ccc2c(NC(=O)Cc3cccc(Cl)c3)cncc2c1)S(C)(=O)=O`, the IC50 was found to be 2.7 µM.

For the compound `O=C(Cc1cccc(Cl)c1)NC1COCc2ccccc21` (stereo unspecified), the IC50 came to 69 µM.

The compound `NC(=O)c1ccncc1NC(=O)Cc1cccc(Cl)c1` gave an IC50 greater than 99.5 µM.

With `O=C(Cc1cc(Cl)cc(Cl)c1)Nc1cncc2ccccc12`, the half-maximal inhibitory concentration (IC50) came to 1.37 µM.

With `O=C(Cc1cccc(Cl)c1)Nc1cncc2cc(C(F)F)ccc12`, the IC50 turned out to be 2.25 µM.

Turning to `C=CC(=O)N(c1ccc(C(F)(F)F)cc1)C(C(=O)NCCc1cccc(F)c1)c1cccnc1` (stereo unspecified), the IC50 is 20.1 µM.

For the compound `O=C(Cc1cc(Cl)cc(Nc2nnc(Cl)cc2Br)c1)Nc1cncc2ccccc12`, the IC50 stood at 1.81 µM.

For the compound `CCC1(C(=O)Nc2cncc3ccc(S(C)(=O)=O)cc23)CNC(=O)c2ccc(Cl)cc21` (stereo unspecified), the IC50 was found to be 1.45 µM.

`O=C1NCC(C(=O)Nc2cnn3c2CCCC3)c2cc(Cl)ccc21` (stereo unspecified) registered an IC50 of 30.5 µM.

Consider `CC(C)(C)c1ccc(N(C(=O)c2nc3cnccc3s2)C(C(=O)NCCc2cccc(F)c2)c2cccnc2)cc1` (stereo unspecified), for which the IC50 was greater than 99.5 µM.

`O=C(O)[C@@H](c1ccccc1)N1Cc2ccccc2C1=O` (stereo in doubt) yielded an IC50 of 1.78 µM.

The compound `O=C(Cc1cc(Cl)cc(OC2CC(=O)N2)c1)Nc1cc(=O)[nH]c2ccccc12` (stereo unspecified) gave an IC50 of 83.3 µM.

In turn, `O=C1NCC(C(=O)Nc2cnn3ccccc23)c2cc(Cl)ccc21` (stereo unspecified) displayed an IC50 of 7.09 µM. Compared with the last compound, the IC50 is about 12-fold lower.

`O=C(Cc1cc(Cl)cc(Nc2ccc(Br)c3ccccc23)c1)Nc1cncc2ccccc12` had a half-inhibitory concentration (IC50) of 1.98 µM.

The compound `C=CC(=O)N(c1ccc(C(C)(C)C)cc1)C(C(=O)NCCSC)c1cccnc1` (stereo unspecified) gave an IC50 of 20.2 µM.

For `O=C(Cn1nnc2ccccc21)N(Cc1ccsc1)c1ccc(N2CCCCC2)cc1`, the IC50 worked out at 6.56 µM. Compared with the last compound, the IC50 is about 3.1-fold lower.

For `O=C(NCc1ccccn1)[C@H]1CN(C(=O)CCl)CCN1S(=O)(=O)c1ccsc1` (stereo in doubt), the 50% inhibitory concentration (IC50) was found to be 0.307 µM.

Compound `Cc1cc2c(cc1C)C(C(=O)N1CCCCC1c1cn[nH]c1)CO2` (stereo unspecified) had an IC50 greater than 99.5 µM.

For the compound `CC(NCc1cnc2c(cnn2C)c1)c1nc2ccccc2s1` (stereo unspecified), the half-inhibitory concentration (IC50) is greater than 99.5 µM.

As for `CC(C)(c1ccc(N(C(=O)c2cocn2)C(C(=O)NCCc2cccc(F)c2)c2cccnc2)cc1)S(C)(=O)=O` (stereo unspecified), the IC50 stood at 67.8 µM. That is a double-digit micromolar value.

In turn, `O=C(c1cncc2ccccc12)N1CCN(c2cccc(Cl)c2)CC1` came in with an IC50 of 1.6 µM.

`Cc1nc(C2CC2)oc1C(=O)N(c1ccc(C(C)(C)C)cc1)C(C(=O)NCCc1cccc(F)c1)c1cccnc1` (stereo unspecified) registered a half-inhibitory concentration (IC50) greater than 99.5 µM.

With `CS(=O)(=O)Nc1ccc(Cl)cc1C(=O)N1CCC(C2CCNC2)CC1` (stereo unspecified), the IC50 is greater than 99.5 µM.

In turn, `Clc1scc(CN2CCC(c3ccn[nH]3)CC2)c1Cl` gave an IC50 greater than 99.5 µM.

On to `C=CC(=O)N(c1ccc(I)cc1)C(C(=O)Nc1ccc(Cl)cc1)c1cncnc1` (stereo unspecified), for which the IC50 turned out to be 26.3 µM.

For `CN(C)C(=O)COCC1(C(=O)Nc2cncc3ccccc23)CCOc2ccc(Cl)cc21` (stereo unspecified), the IC50 came out at 0.652 µM.

(Values after the COVID Moonshot data (paper PMC7615835).)
